Where two headings read alike, the source gives them in different places.

The nature of data set [1]: Human microsomal clearance assay. The data set is classed as in vitro ADME. Conditions: human, 1 μM, pH 7.4. In a few lines: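 Liver microsomes (0.5 mg/mL protein) were incubated with 1 μM compound at 37 °C, pH 7.4 phosphate, with an NADPH-regenerating system. Samples at 0-30 min were quenched and measured by LC-MS/MS for parent loss. No-NADPH controls were included.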

Data set [2] relates to HepDE19 cells. Description: Cytotoxicity (CCK-8 cell viability) and selectivity index. Type of data set: cell-based, human. Particulars: CC50 value/EC50 value. An excerpt:
(§1) HepG2.2.15 and HepDE19 are stably-transfected cell lines containing the HBV genome. Both cell lines are derived from the hepatoblastoma cell line Hep G2 (American Type Culture Collection, ATCC® HB-8065™) by the published procedures described in references: M A Selles et al. Proc. Natl. Acad. Sci. USA 1987, 84, 1005-1009 and H Guo et al. Journal of Virology 2007, 81, 12472-12484, respectively. Both cell lines were maintained in Dulbecco's modified Eagle's medium (DMEM)-F12 medium supplemented with 10% fetal bovine serum, 100 U/mL penicillin, 100 μg/mL streptomycin, and 0.5 mg/mL of G418.
(§2) In a cell culture model, apparent antiviral activity of a compound can be the result of host cell death after exposure to the compound. To determine whether the anti-HBV effect of a test compound is due to cytotoxicity, HepDE19 cells were seeded into 96-well plates (5×10^3 cells per well) and treated with compounds as described above for EC50 determination. Five days after treatment, cell viability was measured by addition of 20 μL of CCK-8 reagent. Two hours after incubation at 37° C., the absorbance at wavelengths of 450 nm and 630 nm (OD450 and OD630) was recorded by a plate reader. The concentration results in the death of 50% of the host cells (CC50) of each compound was determined (See Table 5).

Test in data set [3]: as above
The data set is classed as cell-based, human. Particulars: human, HepDE19 cells; cytotoxicity, concentration resulting in death of 50% of host cells.
Excerpt: as §1, §2

For data set [4], the system named is HBV replication in HepG2.2.15 cells. The data set can be described thus: Anti-HBV activity in vitro in HepG2.2.15 cells (extracellular HBV DNA by qPCR). Conditions: Hepatitis B virus. Type of data set: cell-based. In a few lines: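 Constitutively HBV-producing HepG2.2.15 cells were seeded overnight at 37 °C, then treated with half-log serial dilutions of compound (0.5% DMSO final) for five days. Supernatant HBV DNA was extracted and quantified by qPCR; EC50 is the concentration inhibiting HBV replication by 50%.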
Background: In qPCR the cycle at which signal appears reflects the starting amount.

The mark [5] stands for this setting: HepG2.2.15, Anti-HBV activity in HepG2.2.15 cells, read-out: EC50.

The molecule `COC(=O)C1=C(CN2[C@@H]3COC[C@H]2C[C@H](NC(N)=O)C3)NC(c2nccs2)=N[C@H]1c1ccc(F)cc1Cl` [Example 62, Methyl (4R)-4-(2-chloro-4-fluoro-phenyl)-2-thiazol-2-yl-6-[[(1S,5R)-7-exo-ureido-3-oxa-9-azabicyclo[3.3.1]nonan-9-yl]methyl]-1,4-dihydropyrimidine-5-carboxylate] showed a CLh in data set [1] of 4.6 mL/min/kg. Also, the “Selectivity index (CC50/EC50)” value in data set [2] came out at 6571. In addition, in data set [3], half-maximal cytotoxicity (CC50 at 5 days) was put at 46000 nM. Further, the EC50 (usually the concentration needed to bring the measured effect to its halfway point) in data set [4] (setting [5]) was found to be 7 nM.
As for `COC(=O)C1=C(CN2[C@@H]3COC[C@H]2C[C@H](NC(C)=O)C3)NC(c2nccs2)=N[C@H]1c1ccc(F)cc1Cl` [Example 61, Methyl (4R)-6-[[(1S,5R)-7-exo-acetamido-3-oxa-9-azabicyclo[3.3.1]nonan-9-yl]methyl]-4-(2-chloro-4-fluoro-phenyl)-2-thiazol-2-yl-1,4-dihydropyrimidine-5-carboxylate], the CLh in data set [1] came to 6.3 mL/min/kg. In data set [2], the “Selectivity index (CC50/EC50)” value was 10942. Further, the CC50 (usually the concentration that lowers cell viability or growth by half) at 5 days in data set [3] turned out to be 53000 nM. Moreover, in data set [4] (setting [5]), the EC50 is 4.8 nM.
The matching figures for `COC(=O)C1=C(CN2[C@@H]3COC[C@H]2C[C@H](NS(N)(=O)=O)C3)NC(c2nccs2)=N[C@H]1c1ccc(F)cc1Cl` [Example 63, Methyl (4R)-4-(2-chloro-4-fluoro-phenyl)-6-[[(1R,5S)-7-exo-(sulfamoylamino)-3-oxa-9-azabicyclo[3.3.1]nonan-9-yl]methyl]-2-thiazol-2-yl-1,4-dihydropyrimidine-5-carboxylate]: 4.1 mL/min/kg, 22367, 34000 nM and 1.5 nM.
The matching figures for `CCOC(=O)C1=C(CN2C3COCC2C(F)(F)[C@H](CC(=O)O)C3)NC(c2nccs2)=N[C@H]1c1ccc(F)c(F)c1C` (stereo partly drawn) [Example 128, 2-[(7S)-9-[[(4S)-4-(3,4-difluoro-2-methyl-phenyl)-5-ethoxycarbonyl-2-thiazol-2-yl-1,4-dihydropyrimidin-6-yl]methyl]-6,6-difluoro-3-oxa-9-azabicyclo[3.3.1]nonan-7-yl]acetic acid]: 3.8 mL/min/kg, 14056, 35000 nM and 2.5 nM.
The matching figures for `COC(=O)C1=C(CN2[C@@H]3COC[C@H]2C[C@H](NS(C)(=O)=O)C3)NC(c2nccs2)=N[C@H]1c1ccc(F)cc1Cl` [Example 60, Methyl (4R)-4-(2-chloro-4-fluoro-phenyl)-6-[[(1R,5S)-7-exo-(methanesulfonamido)-3-oxa-9-azabicyclo[3.3.1]nonan-9-yl]methyl]-2-thiazol-2-yl-1,4-dihydropyrimidine-5-carboxylate]: 6.4 mL/min/kg, 21169, 34000 nM and 1.6 nM.
For `CCOC(=O)CC1(NC(=O)C(F)(F)F)CC2COCC(C1)N2CC1=C(C(=O)OC)[C@H](c2ccc(F)cc2Cl)N=C(c2nccs2)N1` (stereo partly drawn) [Example 147, Methyl (4R)-4-(2-chloro-4-fluoro-phenyl)-6-[[7-(2-ethoxy-2-oxo-ethyl)-7-[(2,2,2-trifluoroacetyl)amino]-3-oxa-9-azabicyclo[3.3.1]nonan-9-yl]methyl]-2-thiazol-2-yl-1,4-dihydropyrimidine-5-carboxylate], in data set [2], the “Selectivity index (CC50/EC50)” value is recorded as greater than 111111. The molecule also registered a CC50 at 5 days in data set [3] greater than 100000 nM. Moreover, the EC50 in data set [4] (HepG2.2.15) stood at 0.9 nM.
For `COC(=O)C1=C(CN2C3COCC2CN(S(C)(=O)=O)C3)NC(c2nccs2)=N[C@H]1c1ccc(F)cc1Cl` [Example 11, (R)-4-(2-Chloro-4-fluoro-phenyl)-6-(7-methanesulfonyl-3-oxa-7,9-diaza-bicyclo[3.3.1]non-9-ylmethyl)-2-thiazol-2-yl-1,4-dihydro-pyrimidine-5-carboxylic acid methyl ester], in data set [1], the CLh is 9.0 mL/min/kg. The “Selectivity index (CC50/EC50)” value in data set [2] was greater than 15152. The same molecule registered a CC50 at 5 days in data set [3] greater than 100000 nM. In addition, the EC50 in data set [4] (setting [5]) came to 6.6 nM.
For the molecule `COC(=O)C1=C(CN2C3COCC2CN(CC(F)F)C3)NC(c2nccs2)=N[C@H]1c1ccc(F)cc1Cl` [Example 14, (R)-4-(2-Chloro-4-fluoro-phenyl)-6-[7-(2,2-difluoro-ethyl)-3-oxa-7,9-diaza-bicyclo[3.3.1]non-9-ylmethyl]-2-thiazol-2-yl-1,4-dihydro-pyrimidine-5-carboxylic acid methyl ester], in data set [2], the “Selectivity index (CC50/EC50)” value was greater than 7692. In data set [3], this molecule came in with a CC50 at 5 days greater than 100000 nM. Further, the EC50 in data set [4] (setting [5]) amounted to 13 nM.
For `CCOC(=O)C(O)C1(O)CC2COCC(C1)N2CC1=C(C(=O)OC)[C@H](c2ccc(F)cc2Cl)N=C(c2nccs2)N1` (stereo partly drawn) [Example 137, Methyl (4R)-4-(2-chloro-4-fluoro-phenyl)-6-[[7-(2-ethoxy-1-hydroxy-2-oxo-ethyl)-7-hydroxy-3-oxa-9-azabicyclo[3.3.1]nonan-9-yl]methyl]-2-thiazol-2-yl-1,4-dihydropyrimidine-5-carboxylate], in data set [2], the “Selectivity index (CC50/EC50)” value amounted to 17031. In data set [3], this molecule yielded a CC50 at 5 days of 55000 nM. Moreover, the EC50 in data set [4] (setting [5]) came out at 3.2 nM.
The matching figures for `COC(=O)C1=C(CN2[C@@H]3COC[C@H]2CC2(C3)N=N2)NC(c2nccs2)=N[C@H]1c1ccc(F)cc1Cl` [Example 43, (R)-6-(7-Diazirine-3-oxa-9-aza-bicyclo[3.3.1]non-9-ylmethyl)-4-(2-chloro-4-fluoro-phenyl)-2-thiazol-2-yl-1,4-dihydro-pyrimidine-5-carboxylic acid methyl ester]: 14845, 43000 nM and 3 nM.
In data set [1], `COC(=O)C1=C(CN2[C@@H]3C[C@@H](CC(=O)O)C[C@H]2C(F)(F)C3)NC(c2nccs2)=N[C@H]1c1ccc(F)c(F)c1C` [Example 111, 2-[(1R,3R,5S)-8-[[(4S)-4-(3,4-difluoro-2-methyl-phenyl)-5-methoxycarbonyl-2-thiazol-2-yl-1,4-dihydropyrimidin-6-yl]methyl]-6,6-difluoro-8-azabicyclo[3.2.1]octan-3-yl]acetic acid] yielded a CLh of 4.8 mL/min/kg. Also, the “Selectivity index (CC50/EC50)” value in data set [2] was 65983. The molecule further returned a CC50 at 5 days in data set [3] of 79000 nM. In addition, in data set [4] (setting [5]), the EC50 was determined as 1.2 nM.
For `COC(=O)C1=C(CN2C3COCC2CC(NS(C)(=O)=O)C3)NC(c2nccs2)=N[C@H]1c1ccc(F)cc1Cl` (stereo partly drawn) [Example 36, (R)-4-(2-Chloro-4-fluoro-phenyl)-6-(7-methanesulfonylamino-3-oxa-9-aza-bicyclo[3.3.1]non-9-ylmethyl)-2-thiazol-2-yl-1,4-dihydro-pyrimidine-5-carboxylic acid methyl ester] the same measures were 7.8 mL/min/kg, 11875, 38000 nM and 3 nM.
The matching figures for `COC(=O)C1=C(CN2C3COCC2CN(S(N)(=O)=O)C3)NC(c2nccs2)=N[C@H]1c1ccc(F)cc1Cl` [Example 19, (R)-4-(2-Chloro-4-fluoro-phenyl)-6-(7-sulfamoyl-3-oxa-7,9-diaza-bicyclo[3.3.1]non-9-ylmethyl)-2-thiazol-2-yl-1,4-dihydro-pyrimidine-5-carboxylic acid methyl ester]: 4.6 mL/min/kg, 16571, 58000 nM and 4 nM.
With `COC(=O)C1=C(CN2C3COCC2c2cnoc2C3)NC(c2nccs2)=N[C@H]1c1ccc(F)cc1Cl` (stereo partly drawn) [Example 105, (4R)-4-(2-Chloro-4-fluoro-phenyl)-6-(5,10-dioxa-4,12-diaza-tricyclo[6.3.1.0*2,6*]dodeca-2(6),3-dien-12-ylmethyl)-2-thiazol-2-yl-1,4-dihydro-pyrimidine-5-carboxylic acid methyl ester], the “Selectivity index (CC50/EC50)” value in data set [2] is given as 12041. The same molecule registered a CC50 at 5 days in data set [3] of 33000 nM. Moreover, in data set [4] (setting [5]), the EC50 was 2.7 nM.

Values taken from patent US9266904B2, “6-bridged heteroaryldihydropyrimidines for the treatment and prophylaxis of hepatitis B virus infection” (priority 2013, dated 2016).
